Results published in ChEMBL document CHEMBL1201862, “PubChem BioAssay data set” (2004).
Active and inactive are the calls of the source.

Assays:
[1] = target: Glucose-6-phosphate 1-dehydrogenase (Homo sapiens, UniProt P11413); experiment: inhibition of Homo sapiens G6PD, dose series – biochemical, fluorescence, selectivity assay for P. falciparum G6PD inhibitor project, dose response (AID 504792); format: functional
Ephrin type-A receptor 4 = Ephrin type-A receptor 4 (Mus musculus, UniProt Q03137); experiment: EphA4 ligand-binding antagonists – biochemical, colorimetric, mouse EphA4, primary screen (AID 689); format: functional
Large T antigen = Large T antigen (Simian virus 40, UniProt P03070); format: functional, Betapolyomavirus macacae;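 also: Confirmatory-stage PubChem screen for compounds that inhibit SV40 T antigen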
[2] = target: Voltage-gated inwardly rectifying potassium channel KCNH2 (Homo sapiens, UniProt Q12809); experiment: concentration-dependent hERG rescue from blockers – cell-based, thallium flux, dose response (AID 2121); format: ADME
Streptococcus = experiment: GAS UMAA2166 growth inhibition – luminescence, BacTiterGlo, counter-screen for streptokinase expression inhibitor project, dose response (AID 1915); format: functional, organism-based;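 also: potency for reduction of bacterial viability or growth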
cells [3] = format: functional, cell-based
INS1 = experiment: INS-1E survival protection against cytokine death – cell-based, luminescence, retest, dose response (AID 449756); format: functional; settings: Rattus norvegicus;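 also: cell death triggered by IL-1 beta plus TNF-alpha plus IFN-gamma mixture; protective hits raise ATP signal compared with cytokine alone wells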
[4] = NIH3T3 cell viability loss – ATP luminescence, mouse fibroblasts, counter-screen, dose response (AID 2010); format: functional, cell-based;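 also: cells exposed to compound for about 90 hours before reading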
cells [5] = format: functional, cell-based; remark: listed apart in the source
[6] = system: Streptococcus sp. 'group A'; experiment: Streptococcus pyogenes SK(-)GAS viability under kanamycin – luminescence, BacTiterGlo, confirmation, counter-screen for streptokinase expression inhibitor project, dose response (AID 1900); format: functional, organism-based
[7] = Trypanosoma cruzi growth suppression in host cells – NIH3T3 host cells, beta-gal luminescence, confirmation (AID 2044); format: functional, cell-based;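 also: intracellular parasites grown in NIH/3T3 mouse fibroblasts as host cells; luminescent beta-galactosidase reporter signal from transgenic T. cruzi replicating inside host cells; inhibitors lower the luminescence signal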
[8] = M. tuberculosis growth inhibition, HTS (AID 449762); format: functional
[9] = target: FAD-linked sulfhydryl oxidase ALR (Homo sapiens, UniProt P55789); experiment: ALR-catalysed DTT oxidation blockers – biochemical, H2O2 detection, luminescence, cherry-pick, dose response (AID 493248)
Bcl-2-related protein A1 [10] = target: T1, Bcl-2-related protein A1 (Mus musculus, UniProt Q07440); experiment: small-molecule antagonists of Bfl-1/BH3 interaction – biochemical, TR-FRET, mouse Bfl-1, confirmation (AID 621);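 also: TR-FRET binding of GST-Bfl-1 to FITC-labelled Bid peptide via terbium antibody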
T1 sequence (Q07440 whole entry): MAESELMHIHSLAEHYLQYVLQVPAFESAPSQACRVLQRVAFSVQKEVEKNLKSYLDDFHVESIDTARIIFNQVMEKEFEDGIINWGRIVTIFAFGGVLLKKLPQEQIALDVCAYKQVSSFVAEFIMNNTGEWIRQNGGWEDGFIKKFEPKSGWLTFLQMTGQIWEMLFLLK

Bcl-2-related protein A1 [11] = target: T1, Bcl-2-related protein A1; experiment: Bfl-1 binding inhibitors, SAR follow-up, biochemical, fluorescence polarization (AID 1070)
[12] = target: Peroxisome proliferator-activated receptor gamma/Nuclear receptor corepressor 2 (Homo sapiens, UniProt P37231+Q9Y618); experiment: Counterscreen for NR2E3 inverse agonists: TR-FRET-based biochemical high throughput dose response assay to identify inverse agonists of the interaction between peroxisome proliferator-activated receptor gamma (PPARg) and nuclear receptor co-repressor 2 (NCOR2).; format: functional
[13] = target: Photoreceptor-specific nuclear receptor (Homo sapiens, UniProt Q9Y5X4); experiment: ligands suppressing NR2E3 nuclear receptor activity – biochemical, TR-FRET, dose response (AID 463256); format: functional
[14] = target: T2, Aryl hydrocarbon receptor (Homo sapiens, UniProt P35869); experiment: Luminescence-based cell-based high throughput dose response assay for activators of the Aryl Hydrocarbon Receptor (AHR). [Related pubchem assays: 2796 (Primary screen (AHR activators in singlicate)), 2845 (Confirmation screen (AHR activators in triplicate)), 434939 (Counterscreen (PXR activators in triplicate)), 2804 (Summary (AHR activators))]; format: ADME
T2 sequence (P35869 whole entry): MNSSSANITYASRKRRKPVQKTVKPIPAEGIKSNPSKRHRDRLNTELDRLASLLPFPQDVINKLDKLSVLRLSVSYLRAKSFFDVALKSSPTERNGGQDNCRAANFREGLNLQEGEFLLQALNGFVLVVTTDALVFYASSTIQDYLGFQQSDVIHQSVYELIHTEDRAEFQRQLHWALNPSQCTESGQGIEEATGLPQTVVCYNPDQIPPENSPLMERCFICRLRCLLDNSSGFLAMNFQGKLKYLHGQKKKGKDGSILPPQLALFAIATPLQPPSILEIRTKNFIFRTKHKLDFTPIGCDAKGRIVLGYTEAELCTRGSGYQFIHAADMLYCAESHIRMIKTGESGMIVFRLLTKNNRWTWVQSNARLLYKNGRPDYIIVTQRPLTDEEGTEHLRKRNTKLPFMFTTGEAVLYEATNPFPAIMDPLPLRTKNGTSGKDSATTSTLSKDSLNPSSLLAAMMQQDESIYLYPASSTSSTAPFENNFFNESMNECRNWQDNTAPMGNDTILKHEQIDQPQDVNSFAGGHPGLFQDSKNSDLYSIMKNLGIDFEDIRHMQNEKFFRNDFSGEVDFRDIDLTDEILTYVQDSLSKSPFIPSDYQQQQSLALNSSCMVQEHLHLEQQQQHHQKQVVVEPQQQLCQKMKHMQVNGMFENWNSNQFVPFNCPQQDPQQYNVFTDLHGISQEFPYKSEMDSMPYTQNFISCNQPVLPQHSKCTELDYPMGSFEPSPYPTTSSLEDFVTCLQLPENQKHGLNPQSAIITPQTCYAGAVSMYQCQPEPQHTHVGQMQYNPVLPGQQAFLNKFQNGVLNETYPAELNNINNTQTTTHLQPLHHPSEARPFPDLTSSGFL

Genome polyprotein = Genome polyprotein (Hepatitis C virus, UniProt Q2Q167); experiment: disruption of hepatitis C core self-association – biochemical, TR-FRET, dose response (AID 2159); set-up: species or system Hepacivirus hominis;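 also: blocks dimerization of HCV core protein measured by TR-FRET between tagged core106 pairs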
[15] = target: Induced myeloid leukemia cell differentiation protein Mcl-1 (Homo sapiens, UniProt Q07820); format: functional
Estrogen receptor = target: T3, Estrogen receptor (Homo sapiens, UniProt P03372);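 also: potency for inhibiting coactivator peptide recruitment to the receptor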
T3 sequence (P03372 whole entry): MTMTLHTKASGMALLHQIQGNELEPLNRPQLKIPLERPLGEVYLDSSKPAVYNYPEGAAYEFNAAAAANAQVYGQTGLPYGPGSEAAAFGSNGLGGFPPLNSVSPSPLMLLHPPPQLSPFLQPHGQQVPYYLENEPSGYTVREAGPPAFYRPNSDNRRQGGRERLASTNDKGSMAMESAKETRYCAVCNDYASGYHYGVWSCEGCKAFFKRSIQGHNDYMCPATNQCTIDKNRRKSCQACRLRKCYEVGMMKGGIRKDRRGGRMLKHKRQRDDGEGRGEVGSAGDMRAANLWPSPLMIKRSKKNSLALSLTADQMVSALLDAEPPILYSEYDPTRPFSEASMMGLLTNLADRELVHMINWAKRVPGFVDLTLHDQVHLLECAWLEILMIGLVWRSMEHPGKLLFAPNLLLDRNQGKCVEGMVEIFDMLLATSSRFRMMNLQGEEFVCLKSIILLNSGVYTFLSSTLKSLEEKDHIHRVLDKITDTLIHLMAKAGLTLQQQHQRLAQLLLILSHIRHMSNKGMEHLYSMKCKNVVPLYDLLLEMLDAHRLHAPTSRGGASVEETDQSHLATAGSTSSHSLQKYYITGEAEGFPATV

Bcl-2-related protein A1 [16] = target: T1, Bcl-2-related protein A1; experiment: displacement of Bid BH3 peptide from Bfl-1 – biochemical, fluorescence polarization, FITC-Bid, mouse, primary screen (AID 432)
Aspartyl aminopeptidase = target: T4, Aspartyl aminopeptidase (Plasmodium falciparum 3D7, UniProt Q8I2J3); experiment: Counterscreen for inhibitors of M1 and M17 aminopeptidases: QFRET-based biochemical high throughput dose response assay for inhibitors of the Plasmodium falciparum M18 Aspartyl Aminopeptidase (PFM18AAP). [Related PubChem assays: 1619 (Screening assay (M17LAP inhibitors).), 1445 (Screening assay (M1AAP inhibitors).)]
T4 sequence (Q8I2J3 whole entry): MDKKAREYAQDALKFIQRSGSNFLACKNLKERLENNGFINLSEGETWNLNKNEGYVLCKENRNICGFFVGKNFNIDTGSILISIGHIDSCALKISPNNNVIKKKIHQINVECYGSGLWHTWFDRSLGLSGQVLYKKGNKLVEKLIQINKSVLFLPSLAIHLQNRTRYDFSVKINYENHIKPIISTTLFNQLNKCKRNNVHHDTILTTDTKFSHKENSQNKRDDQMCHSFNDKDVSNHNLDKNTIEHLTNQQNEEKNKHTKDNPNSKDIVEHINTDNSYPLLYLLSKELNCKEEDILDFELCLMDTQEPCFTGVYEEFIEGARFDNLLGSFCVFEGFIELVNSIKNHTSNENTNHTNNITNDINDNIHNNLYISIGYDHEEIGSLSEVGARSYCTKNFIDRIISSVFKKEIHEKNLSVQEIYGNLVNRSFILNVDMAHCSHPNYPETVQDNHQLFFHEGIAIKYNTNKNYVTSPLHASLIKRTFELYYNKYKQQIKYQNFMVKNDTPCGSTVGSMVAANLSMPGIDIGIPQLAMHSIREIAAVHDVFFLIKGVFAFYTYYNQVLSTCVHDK

Procathepsin L = Procathepsin L (Homo sapiens, UniProt P07711); experiment: CTSL1 protease inhibition – biochemical, QFRET, 1536-well, counter-screen for M1/M17 aminopeptidase inhibitor project, dose response (AID 2214)
Leucine aminopeptidase = target: T5, Leucine aminopeptidase (Plasmodium falciparum 3D7, UniProt Q8IL11); experiment: P. falciparum M17LAP inhibitors, primary screen, biochemical, fluorogenic H-Leu-NHMec substrate, 1536-well (AID 1619); format: functional
T5 sequence (Q8IL11 whole entry): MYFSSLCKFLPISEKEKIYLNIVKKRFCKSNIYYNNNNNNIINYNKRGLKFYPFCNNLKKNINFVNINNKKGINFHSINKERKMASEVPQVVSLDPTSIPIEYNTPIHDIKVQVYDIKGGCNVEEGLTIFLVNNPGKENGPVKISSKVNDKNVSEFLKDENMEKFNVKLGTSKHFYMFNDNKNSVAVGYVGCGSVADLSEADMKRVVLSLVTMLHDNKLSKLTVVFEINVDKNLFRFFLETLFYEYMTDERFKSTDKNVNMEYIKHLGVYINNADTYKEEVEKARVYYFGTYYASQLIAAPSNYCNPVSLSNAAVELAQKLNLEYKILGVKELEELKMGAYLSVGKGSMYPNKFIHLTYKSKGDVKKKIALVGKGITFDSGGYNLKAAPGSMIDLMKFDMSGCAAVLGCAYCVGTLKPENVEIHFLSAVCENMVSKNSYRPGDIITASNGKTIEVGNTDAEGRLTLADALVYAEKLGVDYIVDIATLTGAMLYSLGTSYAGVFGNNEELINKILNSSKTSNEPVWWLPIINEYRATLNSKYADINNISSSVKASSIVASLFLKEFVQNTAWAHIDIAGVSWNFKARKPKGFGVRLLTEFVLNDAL

Galanin receptor type 2 = Galanin receptor type 2 (Homo sapiens, UniProt O43603); experiment: Dose Response cell-based high-throughput screening assay to identify antagonists of galanin receptor 2 (GALR2). [Related pubchem assays: 828, 866 ]; format: functional
[17] = Luminescence Cell-Based Dose Confirmation HTS to Identify Inhibitors of Platelet Dense Granule Release. [Related pubchem assays: 1663 (Primary HTS), 1678 (Summary of Project)]; format: functional
[18] = Fluorescence Cell-Based Dose Response to Identify Inhibitors of Thrombin Receptor-Activating Peptide SFLLRN-Mediated P-Selectin Induction on Platelets. [Related pubchem assays: 1663 (Primary HTS), 1889 (retest at dose ), 1891 (counterscreen), 1678 (Project Summary)]; format: functional
[19] = target: Luciferin 4-monooxygenase (Photinus pyralis, UniProt P08659); experiment: inhibition of purified Photinus pyralis luciferase – biochemical, luminescence, dose response (AID 1891)
Cytochrome P450 2C19 = Cytochrome P450 2C19 (Homo sapiens, UniProt P33261); experiment: qHTS Assay for Inhibitors and Substrates of Cytochrome P450 2C19. [Related pubchem assays: 410 ]; format: ADME; settings: read-out: Potency

Sequence of Genome polyprotein (Q2Q167 whole entry): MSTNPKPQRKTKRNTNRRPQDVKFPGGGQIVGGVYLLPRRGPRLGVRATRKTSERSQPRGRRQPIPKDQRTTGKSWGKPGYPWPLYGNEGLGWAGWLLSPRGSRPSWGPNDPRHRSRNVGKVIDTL
Sequence of Large T antigen (P03070 whole entry): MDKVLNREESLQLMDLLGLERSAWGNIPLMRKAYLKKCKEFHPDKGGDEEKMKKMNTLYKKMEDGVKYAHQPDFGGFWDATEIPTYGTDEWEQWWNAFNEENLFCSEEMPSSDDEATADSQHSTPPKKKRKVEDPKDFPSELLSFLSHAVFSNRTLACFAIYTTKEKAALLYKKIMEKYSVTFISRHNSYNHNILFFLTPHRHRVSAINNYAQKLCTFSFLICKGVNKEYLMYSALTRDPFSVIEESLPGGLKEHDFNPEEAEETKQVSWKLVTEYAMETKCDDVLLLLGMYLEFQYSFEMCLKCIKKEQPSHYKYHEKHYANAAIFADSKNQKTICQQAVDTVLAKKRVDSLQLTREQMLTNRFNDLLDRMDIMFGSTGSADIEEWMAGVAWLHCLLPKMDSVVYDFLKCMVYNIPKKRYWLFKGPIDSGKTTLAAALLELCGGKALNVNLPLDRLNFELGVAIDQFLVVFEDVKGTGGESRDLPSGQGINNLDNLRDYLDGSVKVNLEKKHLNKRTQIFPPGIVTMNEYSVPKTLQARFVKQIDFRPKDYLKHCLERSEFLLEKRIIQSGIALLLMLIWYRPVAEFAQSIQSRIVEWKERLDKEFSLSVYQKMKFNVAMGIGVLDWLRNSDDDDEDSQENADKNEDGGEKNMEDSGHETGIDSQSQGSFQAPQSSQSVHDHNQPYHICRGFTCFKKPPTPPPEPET
Sequence of Procathepsin L (P07711 whole entry): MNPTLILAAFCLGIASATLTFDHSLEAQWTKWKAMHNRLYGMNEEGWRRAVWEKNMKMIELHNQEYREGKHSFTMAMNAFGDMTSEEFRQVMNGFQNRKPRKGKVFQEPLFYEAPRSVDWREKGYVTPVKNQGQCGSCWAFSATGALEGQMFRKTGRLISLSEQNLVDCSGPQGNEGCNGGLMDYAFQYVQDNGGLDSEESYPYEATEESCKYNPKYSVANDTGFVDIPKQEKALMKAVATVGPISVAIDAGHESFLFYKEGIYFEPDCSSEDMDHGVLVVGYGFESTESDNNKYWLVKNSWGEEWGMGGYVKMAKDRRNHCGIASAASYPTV
Sequence of Ephrin type-A receptor 4 (Q03137 whole entry): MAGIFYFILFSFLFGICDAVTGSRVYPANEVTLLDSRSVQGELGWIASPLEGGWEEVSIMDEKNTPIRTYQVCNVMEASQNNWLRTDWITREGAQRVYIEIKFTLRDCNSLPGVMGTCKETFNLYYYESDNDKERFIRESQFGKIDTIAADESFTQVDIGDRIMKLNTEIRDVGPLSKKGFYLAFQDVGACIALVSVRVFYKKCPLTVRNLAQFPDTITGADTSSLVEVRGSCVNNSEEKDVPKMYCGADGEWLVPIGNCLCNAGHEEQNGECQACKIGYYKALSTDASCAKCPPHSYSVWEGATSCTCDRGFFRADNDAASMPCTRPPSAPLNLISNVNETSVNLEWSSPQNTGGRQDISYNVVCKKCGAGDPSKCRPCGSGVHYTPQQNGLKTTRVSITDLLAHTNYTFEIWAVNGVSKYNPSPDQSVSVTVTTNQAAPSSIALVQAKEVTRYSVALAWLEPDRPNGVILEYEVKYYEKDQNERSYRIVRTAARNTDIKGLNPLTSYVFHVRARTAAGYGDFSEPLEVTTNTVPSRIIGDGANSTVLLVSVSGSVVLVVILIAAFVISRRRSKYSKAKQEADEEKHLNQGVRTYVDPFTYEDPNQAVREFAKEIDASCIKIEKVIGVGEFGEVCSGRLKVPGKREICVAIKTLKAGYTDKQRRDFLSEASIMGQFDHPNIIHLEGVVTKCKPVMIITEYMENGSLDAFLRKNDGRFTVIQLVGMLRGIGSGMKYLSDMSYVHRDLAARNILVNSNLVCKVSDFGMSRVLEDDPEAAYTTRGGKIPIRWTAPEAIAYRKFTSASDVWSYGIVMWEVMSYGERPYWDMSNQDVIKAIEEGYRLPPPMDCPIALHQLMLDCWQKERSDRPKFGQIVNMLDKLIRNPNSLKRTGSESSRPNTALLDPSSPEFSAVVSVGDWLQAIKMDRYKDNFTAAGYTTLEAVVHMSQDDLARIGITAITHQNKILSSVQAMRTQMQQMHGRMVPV
Sequence of Galanin receptor type 2 (O43603 whole entry): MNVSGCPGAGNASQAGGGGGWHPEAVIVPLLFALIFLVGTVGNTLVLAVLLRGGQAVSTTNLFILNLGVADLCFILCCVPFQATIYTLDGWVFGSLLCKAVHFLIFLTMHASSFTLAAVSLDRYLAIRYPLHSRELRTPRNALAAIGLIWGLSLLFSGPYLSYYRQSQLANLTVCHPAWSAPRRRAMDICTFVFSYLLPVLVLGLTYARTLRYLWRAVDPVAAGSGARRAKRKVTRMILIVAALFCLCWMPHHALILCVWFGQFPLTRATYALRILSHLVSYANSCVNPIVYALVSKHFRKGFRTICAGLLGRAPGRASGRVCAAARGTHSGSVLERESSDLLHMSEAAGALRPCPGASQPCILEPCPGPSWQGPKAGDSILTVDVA
Sequence of Voltage-gated inwardly rectifying potassium channel KCNH2 (Q12809 whole entry): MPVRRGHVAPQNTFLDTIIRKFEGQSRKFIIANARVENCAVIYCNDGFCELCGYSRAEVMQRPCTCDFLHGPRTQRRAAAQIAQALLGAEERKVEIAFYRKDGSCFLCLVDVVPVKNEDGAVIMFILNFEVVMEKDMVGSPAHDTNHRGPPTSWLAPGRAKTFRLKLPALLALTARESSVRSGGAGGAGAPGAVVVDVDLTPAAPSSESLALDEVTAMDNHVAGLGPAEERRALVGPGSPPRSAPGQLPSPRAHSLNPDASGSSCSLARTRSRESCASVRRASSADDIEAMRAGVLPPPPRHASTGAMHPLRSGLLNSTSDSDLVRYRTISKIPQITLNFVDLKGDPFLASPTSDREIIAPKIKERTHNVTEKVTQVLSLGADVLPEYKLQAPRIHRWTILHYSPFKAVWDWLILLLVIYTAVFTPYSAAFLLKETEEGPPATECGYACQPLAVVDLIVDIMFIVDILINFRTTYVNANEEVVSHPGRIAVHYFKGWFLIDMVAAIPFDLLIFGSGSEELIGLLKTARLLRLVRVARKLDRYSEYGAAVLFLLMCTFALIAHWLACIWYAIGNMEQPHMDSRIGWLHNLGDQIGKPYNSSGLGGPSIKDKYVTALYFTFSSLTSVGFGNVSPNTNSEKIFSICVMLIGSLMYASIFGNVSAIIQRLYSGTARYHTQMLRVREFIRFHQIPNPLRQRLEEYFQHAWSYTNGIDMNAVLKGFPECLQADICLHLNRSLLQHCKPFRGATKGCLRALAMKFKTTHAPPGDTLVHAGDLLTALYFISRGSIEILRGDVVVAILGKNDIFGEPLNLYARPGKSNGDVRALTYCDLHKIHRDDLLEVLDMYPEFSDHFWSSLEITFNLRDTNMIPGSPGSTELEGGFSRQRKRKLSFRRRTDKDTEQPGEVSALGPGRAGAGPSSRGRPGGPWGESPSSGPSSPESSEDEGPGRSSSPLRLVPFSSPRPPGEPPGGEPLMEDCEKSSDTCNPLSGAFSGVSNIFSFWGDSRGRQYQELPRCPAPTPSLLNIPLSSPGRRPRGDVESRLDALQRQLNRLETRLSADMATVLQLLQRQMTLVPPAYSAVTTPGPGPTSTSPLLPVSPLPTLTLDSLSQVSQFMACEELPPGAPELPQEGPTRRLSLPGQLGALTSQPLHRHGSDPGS
Sequence of Glucose-6-phosphate 1-dehydrogenase (P11413 whole entry): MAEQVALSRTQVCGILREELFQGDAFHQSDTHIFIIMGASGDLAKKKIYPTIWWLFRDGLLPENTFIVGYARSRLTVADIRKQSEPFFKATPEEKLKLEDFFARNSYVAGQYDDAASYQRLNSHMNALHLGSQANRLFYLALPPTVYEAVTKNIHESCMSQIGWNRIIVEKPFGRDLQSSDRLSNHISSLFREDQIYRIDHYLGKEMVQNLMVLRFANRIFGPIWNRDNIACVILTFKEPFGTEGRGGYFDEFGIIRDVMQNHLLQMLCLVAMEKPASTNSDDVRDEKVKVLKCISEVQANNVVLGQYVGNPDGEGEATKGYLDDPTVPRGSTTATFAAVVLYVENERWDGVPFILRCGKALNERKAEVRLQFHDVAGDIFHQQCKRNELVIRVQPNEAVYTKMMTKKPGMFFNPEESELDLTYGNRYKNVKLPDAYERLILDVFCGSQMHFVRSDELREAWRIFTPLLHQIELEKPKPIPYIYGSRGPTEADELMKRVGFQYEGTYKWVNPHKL
Sequence of FAD-linked sulfhydryl oxidase ALR (P55789 whole entry): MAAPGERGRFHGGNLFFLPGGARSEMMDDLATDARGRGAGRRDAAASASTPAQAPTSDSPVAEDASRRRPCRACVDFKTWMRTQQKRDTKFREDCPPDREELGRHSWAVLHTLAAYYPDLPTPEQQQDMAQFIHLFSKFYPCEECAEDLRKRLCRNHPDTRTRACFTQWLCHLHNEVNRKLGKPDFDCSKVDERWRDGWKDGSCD
Sequence of Induced myeloid leukemia cell differentiation protein Mcl-1 (Q07820 whole entry): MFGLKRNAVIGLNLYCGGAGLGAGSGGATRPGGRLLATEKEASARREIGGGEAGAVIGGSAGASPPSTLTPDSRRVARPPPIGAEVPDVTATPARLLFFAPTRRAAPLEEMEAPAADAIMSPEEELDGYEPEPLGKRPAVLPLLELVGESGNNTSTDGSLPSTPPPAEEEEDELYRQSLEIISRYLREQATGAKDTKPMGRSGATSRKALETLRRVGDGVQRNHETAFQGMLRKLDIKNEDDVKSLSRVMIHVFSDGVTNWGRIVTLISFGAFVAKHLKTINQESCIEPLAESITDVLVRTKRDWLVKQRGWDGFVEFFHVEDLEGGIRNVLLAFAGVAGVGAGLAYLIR

COc1ccccc1N1CSC2=C(C#N)C(c3ccc(SC)cc3)CC(=O)N2C1 (stereo unspecified)
IC50 [1]: > 80 µM (inactive)
IC50 (Ephrin type-A receptor 4): 21.5 µM (active)
IC50 (Large T antigen): 28.4 µM (active)

Cc1ccc(N=Nc2ccc(O)c3ncccc23)cc1
EC50 [2]: 2.02 µM (active)
EC50 (Streptococcus): 1.56 µM (active)
EC50 (cells [3]): > 350 µM (not active)
AC50 (INS1): 1.3 µM (active)
EC50 [4]: 32.7 µM (active)
EC50 (cells [5]): 9.69 µM (active)
EC50 [6]: 0.165 µM (active)
EC50 [7]: 0.686 µM (active)

O=C1CCC(=O)N1CNc1ccc(Oc2ccccc2)cc1
IC50 [8]: > 100 µM (active)
AC50 [9]: 0.166 µM (active)

O=C1C(Cl)=C(N2CCN(C/C=C/c3ccccc3)CC2)C(=O)N1c1ccc(Cl)c(Cl)c1
IC50 (Bcl-2-related protein A1 [10]): 0.73 µM (active)
IC50 (Bcl-2-related protein A1 [11]): 0.594 µM (active)

O=C(Cc1ccccc1)Nc1ccc2oc(-c3ccncc3)nc2c1
IC50 [12]: 6.54 µM (active)
IC50 [13]: 6.31 µM (active)

CC(=O)c1noc(C)c1C(=O)Nc1nccs1
EC50 [14]: 6.46 µM (active)

Cc1oc(-c2ccc(Cl)cc2)cc1-c1nn2c(-c3ccoc3C)nnc2s1
IC50 (Genome polyprotein): > 49.8 µM (not active)
IC50 [15]: 3.8 µM (not active)
IC50 (Estrogen receptor): 2.77 µM (active)

COc1ccc(N2C(=O)C(Cl)=C(Nc3c(C)n(C)n(-c4ccccc4)c3=O)C2=O)cc1
IC50 (Bcl-2-related protein A1 [10]): > 100 µM (not active)
IC50 (Bcl-2-related protein A1 [16]): > 100 µM (not active)

N#Cc1c(NC(=O)C2C3C=CC(C3)C2C(=O)O)sc2c1CCCCC2 (stereo unspecified)
IC50 (Aspartyl aminopeptidase): > 73.5 µM (not active)
IC50 (Procathepsin L): > 59.6 µM (not active)
IC50 (Leucine aminopeptidase): 1.39 µM (active)

CCOC(=O)c1ccc(N2C(=O)CC(N3CCC(O)(c4ccc(Br)cc4)CC3)C2=O)cc1 (stereo unspecified)
IC50 (Galanin receptor type 2): > 42 µM (not active)

C/C(=N/NC(=O)C1CCCC1)c1ccc(NC(=O)C(F)(F)F)cc1
EC50 [17]: 3.55 µM (active)
EC50 [18]: < 1 µM (active)
EC50 [19]: > 112 µM (not active)

COc1ccccc1N1CCN(CCN(C(=O)c2ccc(I)cc2)c2ccccn2)CC1
AC50 (Cytochrome P450 2C19): 10 µM (inconclusive)
